Laboratory results: patent publication US12365696B2, “Small-molecule focal adhesion kinase (FAK) inhibitors” (DANA-FARBER CANCER INSTITUTE, INC., priority 2019, dated 2025)
Like-named read-outs stand apart in the source and are kept apart here.

Assays:
Format in all cases: binding
TIE2 = TIE2 (Homo sapiens (Human), UniProt Q02763); assay: KINOMEscan; details: TIE2, 10000 nM; read-out: Percent Control
ZAK = ZAK (Homo sapiens (Human), UniProt Q9NYL2); assay: KINOMEscan; details: 10000 nM, read-out: Percent Control
KIT = KIT (Homo sapiens (Human), UniProt P10721); assay: KINOMEscan; details: 10000 nM, read-out: Percent Control
Sequence of KIT (P10721 26-976): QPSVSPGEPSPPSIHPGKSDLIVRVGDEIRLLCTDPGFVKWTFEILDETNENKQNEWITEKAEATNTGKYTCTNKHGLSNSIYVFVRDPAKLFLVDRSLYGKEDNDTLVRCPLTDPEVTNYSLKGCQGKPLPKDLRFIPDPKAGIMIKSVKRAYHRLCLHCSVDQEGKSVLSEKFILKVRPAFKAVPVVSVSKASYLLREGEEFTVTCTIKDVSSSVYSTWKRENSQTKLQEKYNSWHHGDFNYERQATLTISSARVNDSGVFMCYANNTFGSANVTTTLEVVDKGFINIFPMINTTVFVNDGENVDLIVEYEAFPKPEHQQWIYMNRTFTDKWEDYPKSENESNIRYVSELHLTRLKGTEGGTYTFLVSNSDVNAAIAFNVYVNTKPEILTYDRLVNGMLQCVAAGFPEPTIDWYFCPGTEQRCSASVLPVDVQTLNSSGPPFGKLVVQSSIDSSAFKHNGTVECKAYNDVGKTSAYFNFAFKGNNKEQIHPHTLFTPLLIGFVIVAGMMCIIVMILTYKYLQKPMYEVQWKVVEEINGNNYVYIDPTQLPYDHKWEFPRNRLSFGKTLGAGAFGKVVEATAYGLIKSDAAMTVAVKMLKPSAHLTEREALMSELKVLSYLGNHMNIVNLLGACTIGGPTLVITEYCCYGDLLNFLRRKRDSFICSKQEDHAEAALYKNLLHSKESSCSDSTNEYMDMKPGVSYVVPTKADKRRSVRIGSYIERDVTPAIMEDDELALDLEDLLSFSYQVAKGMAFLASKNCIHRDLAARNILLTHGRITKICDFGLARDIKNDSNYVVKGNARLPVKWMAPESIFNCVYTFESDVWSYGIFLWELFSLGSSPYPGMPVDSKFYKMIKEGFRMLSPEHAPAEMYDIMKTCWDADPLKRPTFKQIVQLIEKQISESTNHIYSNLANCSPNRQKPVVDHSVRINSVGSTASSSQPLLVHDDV

ERK4 = ERK4 (Homo sapiens (Human), UniProt P31152); assay: KINOMEscan; details: ERK4, 10000 nM; read-out: Percent Control
PCTK3 = PCTK3 (Homo sapiens (Human), UniProt Q07002); assay: KINOMEscan; details: PCTK3, 10000 nM; read-out: Percent Control
EGFR(E746-A750del) = EGFR(E746-A750del) (Homo sapiens (Human), UniProt P00533, DEL746-750); assay: KINOMEscan; details: 10000 nM, read-out: Percent Control
CAMK4 = CAMK4 (Homo sapiens (Human), UniProt Q16566); assay: KINOMEscan; details: CAMK4, 10000 nM; read-out: Percent Control
SRPK3 = SRPK3 (Homo sapiens (Human), UniProt Q9UPE1); assay: KINOMEscan; details: SRPK3, 10000 nM; read-out: Percent Control
KIT(V5S9D, V654A) = KIT(V5S9D, V654A) (Homo sapiens (Human), UniProt P10721, V559D/V654A); assay: KINOMEscan; details: 10000 nM, read-out: Percent Control
MELK = MELK (Homo sapiens (Human), UniProt Q14680); assay: KINOMEscan; details: 10000 nM, read-out: Percent Control
PAK1 = PAK1 (Homo sapiens (Human), UniProt Q13153); assay: KINOMEscan; details: PAK1, 10000 nM; read-out: Percent Control
CIT = CIT (Homo sapiens (Human), UniProt O14578); assay: KINOMEscan; details: 10000 nM, read-out: Percent Control
DYRK1B = DYRK1B (Homo sapiens (Human), UniProt Q9Y463); assay: KINOMEscan; details: 10000 nM, read-out: Percent Control
ULK1 = ULK1 (Homo sapiens (Human), UniProt O75385); assay: KINOMEscan; details: ULK1, 10000 nM; read-out: Percent Control
WEE1 = WEE1 (Homo sapiens (Human), UniProt P30291); assay: KINOMEscan; details: WEE1, 10000 nM; read-out: Percent Control
BMPR1A = BMPR1A (Homo sapiens (Human), UniProt P36894); assay: KINOMEscan; details: 10000 nM, read-out: Percent Control
Sequence of BMPR1A (P36894 24-532): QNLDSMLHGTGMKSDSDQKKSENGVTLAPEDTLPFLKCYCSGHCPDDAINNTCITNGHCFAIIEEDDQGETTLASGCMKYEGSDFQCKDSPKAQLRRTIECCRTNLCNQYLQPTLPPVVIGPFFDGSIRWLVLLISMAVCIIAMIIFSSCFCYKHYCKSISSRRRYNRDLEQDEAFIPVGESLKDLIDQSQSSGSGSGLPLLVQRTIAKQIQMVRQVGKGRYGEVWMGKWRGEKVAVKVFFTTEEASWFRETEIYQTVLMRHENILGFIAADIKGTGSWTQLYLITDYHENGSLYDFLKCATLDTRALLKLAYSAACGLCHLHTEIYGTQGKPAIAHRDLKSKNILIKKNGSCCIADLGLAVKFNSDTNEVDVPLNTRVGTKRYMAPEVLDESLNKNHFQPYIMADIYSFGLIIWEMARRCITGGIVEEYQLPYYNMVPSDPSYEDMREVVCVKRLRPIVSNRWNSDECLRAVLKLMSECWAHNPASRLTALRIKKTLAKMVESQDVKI

DMPK = DMPK (Homo sapiens (Human), UniProt Q09013); assay: KINOMEscan; details: 10000 nM, read-out: Percent Control
403 non-mutant kinases = assay: KINOMEscan panel selectivity (S-Score, number of kinases engaged); details: 10 μM; for S-Score (35): non-mutant kinases below 35% control divided by kinases examined
Description: Selectivity profiling of compound 3 among a panel of kinases was performed with KINOMEscan® as set forth below. The KINOMEscan® screening platform employs an active site-directed competition binding assay to quantitatively measure interactions between a test compound, e.g., compound 3, and more than 450 kinases and disease-relevant mutant variants.
Screening of compound 3 was conducted at a concentration of 10 μM by Eurofins DiscoverX. Activity is measured as the ability of compound 3 to displace the kinase from a solid support relative to a negative control (i.e., DMSO). The output is % control.
The selectivity score (S-Score) refers to the number of non-mutant kinases that display a % control below a specific number, divided by the number of non-mutant kinases that were examined.
Selectivity profiling of compound 5 among a panel of kinases was performed with KINOMEscan® as set forth below.

RET(M918T) = RET(M918T) (Homo sapiens (Human), UniProt P07949, M918T); assay: KINOMEscan; details: 10000 nM, read-out: Percent Control
PLK2 = PLK2 (Homo sapiens (Human), UniProt Q9NYY3); assay: KINOMEscan; details: PLK2, 10000 nM; read-out: Percent Control
FLT1 = FLT1 (Homo sapiens (Human), UniProt P17948); assay: KINOMEscan; details: FLT1, 10000 nM; read-out: Percent Control
PKNB(M. tuberculosis) = PKNB(M. tuberculosis) (Mycobacterium tuberculosis (strain ATCC 25618 / H37Rv), UniProt P9WI81); assay: KINOMEscan; details: read-out: Percent Control
PIK3CD = PIK3CD (Homo sapiens (Human), UniProt O00329); assay: KINOMEscan; details: 10000 nM, read-out: Percent Control
MYLK2 = MYLK2 (Homo sapiens (Human), UniProt Q9H1R3); assay: KINOMEscan; details: MYLK2, 10000 nM; read-out: Percent Control
KIT(A829P) = KIT(A829P) (Homo sapiens (Human), UniProt P10721, A829P); assay: KINOMEscan; details: 10000 nM, read-out: Percent Control
Sequence of KIT(A829P) (P10721 26-976 A829P): as the sequence (P10721 26-976) above, with A804P counted along it

PIK3CA(E545A) = PIK3CA(E545A) (Homo sapiens (Human), UniProt P42336, E545A); assay: KINOMEscan; details: 10000 nM, read-out: Percent Control
[1] = biological target: ABL1(F317L)-nonphosphorylated (Homo sapiens (Human), UniProt P00519, F317L); assay: KINOMEscan; details: 10000 nM, read-out: Percent Control
Sequence of ABL1(F317L)-nonphosphorylated (P00519 whole entry F317L): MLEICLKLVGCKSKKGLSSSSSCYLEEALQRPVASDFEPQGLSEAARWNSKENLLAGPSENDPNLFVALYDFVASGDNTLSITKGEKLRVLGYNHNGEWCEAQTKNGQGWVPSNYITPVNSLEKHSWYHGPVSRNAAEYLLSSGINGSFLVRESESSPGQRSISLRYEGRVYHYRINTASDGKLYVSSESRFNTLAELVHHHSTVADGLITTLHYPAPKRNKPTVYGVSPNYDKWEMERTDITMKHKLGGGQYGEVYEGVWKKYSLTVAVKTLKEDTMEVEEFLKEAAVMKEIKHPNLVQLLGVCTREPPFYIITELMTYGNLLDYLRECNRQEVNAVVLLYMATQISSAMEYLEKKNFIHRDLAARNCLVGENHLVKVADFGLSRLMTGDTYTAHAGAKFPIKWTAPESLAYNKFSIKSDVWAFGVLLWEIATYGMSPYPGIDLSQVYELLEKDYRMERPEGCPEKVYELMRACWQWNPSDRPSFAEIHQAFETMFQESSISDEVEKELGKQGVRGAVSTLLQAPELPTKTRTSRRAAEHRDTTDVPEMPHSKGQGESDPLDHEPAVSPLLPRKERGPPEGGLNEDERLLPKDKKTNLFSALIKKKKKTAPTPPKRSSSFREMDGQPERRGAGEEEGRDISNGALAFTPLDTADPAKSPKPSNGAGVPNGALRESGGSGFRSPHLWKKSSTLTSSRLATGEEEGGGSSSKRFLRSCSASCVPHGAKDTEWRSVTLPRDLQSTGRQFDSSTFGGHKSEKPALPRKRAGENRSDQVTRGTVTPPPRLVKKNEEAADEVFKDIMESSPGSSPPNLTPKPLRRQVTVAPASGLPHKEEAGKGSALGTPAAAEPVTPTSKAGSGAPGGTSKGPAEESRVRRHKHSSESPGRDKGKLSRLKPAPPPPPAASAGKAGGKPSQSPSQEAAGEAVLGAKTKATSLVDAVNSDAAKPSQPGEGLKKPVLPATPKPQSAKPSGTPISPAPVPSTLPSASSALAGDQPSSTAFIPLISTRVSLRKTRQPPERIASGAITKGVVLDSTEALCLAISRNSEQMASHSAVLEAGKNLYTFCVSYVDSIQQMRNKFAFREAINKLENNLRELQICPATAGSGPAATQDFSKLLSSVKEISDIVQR

CDKL5 = CDKL5 (Homo sapiens (Human), UniProt O76039); assay: KINOMEscan; details: CDKL5, 10000 nM; read-out: Percent Control
PIK3CG = PIK3CG (Homo sapiens (Human), UniProt P48736); assay: KINOMEscan; details: 10000 nM, read-out: Percent Control
Sequence of PIK3CG (P48736 whole entry): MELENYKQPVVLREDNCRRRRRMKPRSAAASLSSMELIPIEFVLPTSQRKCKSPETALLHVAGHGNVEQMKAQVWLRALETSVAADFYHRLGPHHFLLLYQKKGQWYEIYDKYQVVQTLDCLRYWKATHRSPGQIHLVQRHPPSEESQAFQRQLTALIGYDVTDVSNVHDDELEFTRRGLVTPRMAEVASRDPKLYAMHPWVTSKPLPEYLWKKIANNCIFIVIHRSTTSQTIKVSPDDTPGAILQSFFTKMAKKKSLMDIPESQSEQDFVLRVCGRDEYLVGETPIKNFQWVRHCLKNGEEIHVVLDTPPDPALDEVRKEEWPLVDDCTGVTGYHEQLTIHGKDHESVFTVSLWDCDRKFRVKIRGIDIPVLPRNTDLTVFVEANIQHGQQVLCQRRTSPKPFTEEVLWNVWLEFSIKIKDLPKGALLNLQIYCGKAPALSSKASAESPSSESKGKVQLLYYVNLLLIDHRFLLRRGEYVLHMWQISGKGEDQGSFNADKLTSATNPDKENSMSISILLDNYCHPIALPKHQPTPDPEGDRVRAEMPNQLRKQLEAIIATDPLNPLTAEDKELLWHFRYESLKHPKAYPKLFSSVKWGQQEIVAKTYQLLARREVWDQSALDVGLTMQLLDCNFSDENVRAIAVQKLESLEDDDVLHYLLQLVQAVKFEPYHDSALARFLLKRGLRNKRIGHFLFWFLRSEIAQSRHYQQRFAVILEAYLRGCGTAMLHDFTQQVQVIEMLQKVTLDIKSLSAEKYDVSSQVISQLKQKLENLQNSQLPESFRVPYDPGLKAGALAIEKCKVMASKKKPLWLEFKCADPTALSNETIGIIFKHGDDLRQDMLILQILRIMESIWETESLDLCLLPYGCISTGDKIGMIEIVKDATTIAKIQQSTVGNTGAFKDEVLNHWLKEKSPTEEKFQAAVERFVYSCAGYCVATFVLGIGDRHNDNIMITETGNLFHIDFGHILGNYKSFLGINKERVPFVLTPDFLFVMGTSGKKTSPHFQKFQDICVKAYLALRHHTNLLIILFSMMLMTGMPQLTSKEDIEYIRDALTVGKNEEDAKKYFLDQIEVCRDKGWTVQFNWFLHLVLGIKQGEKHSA

LATS2 = LATS2 (Homo sapiens (Human), UniProt Q9NRM7); assay: KINOMEscan; details: LATS2, 10000 nM; read-out: Percent Control

Sequence of TIE2 (Q02763 23-1124): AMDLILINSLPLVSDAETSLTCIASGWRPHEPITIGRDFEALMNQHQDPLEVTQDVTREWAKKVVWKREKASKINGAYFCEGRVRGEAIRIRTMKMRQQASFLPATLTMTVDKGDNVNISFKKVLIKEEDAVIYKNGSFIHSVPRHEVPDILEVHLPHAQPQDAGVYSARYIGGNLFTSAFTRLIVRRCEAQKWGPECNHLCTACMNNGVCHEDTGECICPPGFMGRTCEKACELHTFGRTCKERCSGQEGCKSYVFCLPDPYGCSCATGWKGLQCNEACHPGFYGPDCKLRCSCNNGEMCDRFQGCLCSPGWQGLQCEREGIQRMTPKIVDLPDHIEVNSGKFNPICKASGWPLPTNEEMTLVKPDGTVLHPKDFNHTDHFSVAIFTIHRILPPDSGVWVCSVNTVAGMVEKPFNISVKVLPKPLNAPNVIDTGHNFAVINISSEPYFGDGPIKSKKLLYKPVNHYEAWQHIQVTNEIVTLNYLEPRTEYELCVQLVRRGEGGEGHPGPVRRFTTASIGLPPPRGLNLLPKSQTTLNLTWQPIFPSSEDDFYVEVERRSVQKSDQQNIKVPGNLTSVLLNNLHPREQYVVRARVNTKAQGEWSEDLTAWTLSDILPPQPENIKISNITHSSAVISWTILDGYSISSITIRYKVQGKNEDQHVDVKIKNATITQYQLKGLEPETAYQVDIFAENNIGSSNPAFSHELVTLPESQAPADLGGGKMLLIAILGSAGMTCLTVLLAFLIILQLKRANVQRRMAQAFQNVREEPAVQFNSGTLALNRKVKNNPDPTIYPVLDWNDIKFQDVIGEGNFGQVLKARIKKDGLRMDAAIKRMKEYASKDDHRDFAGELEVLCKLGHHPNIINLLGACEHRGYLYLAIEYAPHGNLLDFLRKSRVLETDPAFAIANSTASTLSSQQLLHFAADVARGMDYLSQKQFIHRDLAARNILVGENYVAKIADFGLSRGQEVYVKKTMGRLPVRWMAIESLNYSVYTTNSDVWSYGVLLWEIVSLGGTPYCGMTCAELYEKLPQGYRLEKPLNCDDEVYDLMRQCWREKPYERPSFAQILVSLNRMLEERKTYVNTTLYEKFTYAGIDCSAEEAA

COc1cc(N2CCC(N3CCN(C)CC3)CC2)ccc1Nc1ncc2c(n1)N(C)c1sc(C)nc1C(=O)N2 [Compound 3, 6-((2-methoxy-4-(4-(4-methylpiperazin-1-yl)piperidin-1-yl)phenyl)amino)-2,4-dimethyl-4,9-dihydro-10H-pyrimido[5,4-b]thiazolo[5,4-e][1,4]diazepin-10-one]
remaining binding at 10 µM (TIE2): 83% | remaining binding at 10 µM (ZAK): 92% | remaining binding at 10 µM (KIT): 54% | remaining binding at 10 µM (ERK4): 84% | remaining binding at 10 µM (PCTK3): 90% | remaining binding at 10 µM (EGFR(E746-A750del)): 67% | remaining binding at 10 µM (CAMK4): 98% | remaining binding at 10 µM (SRPK3): 75% | remaining binding at 10 µM (KIT(V5S9D, V654A); KIT(V5S9D, V654A)): 108% | remaining binding at 10 µM (MELK): 99% | remaining binding at 10 µM (PAK1): 64% | remaining binding at 10 µM (CIT): 73% | remaining binding at 10 µM (DYRK1B): 69% | remaining binding at 10 µM (ULK1): 100% | remaining binding at 10 µM (WEE1): 88% | remaining binding at 10 µM (BMPR1A): 81% | remaining binding at 10 µM (DMPK): 99% | S-Score (35) (403 non-mutant kinases): 0.02 | number of non-mutant kinases displaying <35% relative to control (403 non-mutant kinases; out of 403 non-mutant kinases): five | number of other kinases engaged with greater than 65% inhibition (403 non-mutant kinases; panel of 403 kinases): 4 | remaining binding at 10 µM (RET(M918T)): 87% | remaining binding at 10 µM (PLK2): 100% | remaining binding at 10 µM (FLT1): 87% | remaining binding at 10 µM (PKNB(M. tuberculosis)): 91% | remaining binding at 10 µM (PIK3CD): 98% | remaining binding at 10 µM (MYLK2): 84% | remaining binding at 10 µM (KIT(A829P)): 47% | remaining binding at 10 µM (PIK3CA(E545A)): 84% | remaining binding at 10 µM [1]: 3.9% | remaining binding at 10 µM (CDKL5): 97% | remaining binding at 10 µM (PIK3CG): 93% | remaining binding at 10 µM (LATS2): 100%

COc1cc(N2CCC(N3CCN(C)CC3)CC2)ccc1Nc1ncc2c(n1)N(C)c1sc(C)nc1C(=O)N2C [Compound 5, 6-((2-methoxy-4-(4-(4-methylpiperazin-1-yl)piperidin-1-yl)phenyl)amino)-2,4,9-trimethyl-4,9-dihydro-10H-pyrimido[5,4-b]thiazolo[5,4-e][1,4]diazepin-10-one]
remaining binding at 10 µM (TIE2): 100% | remaining binding at 10 µM (ZAK): 100% | remaining binding at 10 µM (KIT): 100% | remaining binding at 10 µM (ERK4): 100% | remaining binding at 10 µM (PCTK3): 98% | remaining binding at 10 µM (EGFR(E746-A750del)): 79% | remaining binding at 10 µM (CAMK4): 100% | remaining binding at 10 µM (SRPK3): 100% | remaining binding at 10 µM (KIT(V5S9D, V654A); KIT(V559D, V654A)): 100% | remaining binding at 10 µM (MELK): 88% | remaining binding at 10 µM (PAK1): 92% | remaining binding at 10 µM (CIT): 98% | remaining binding at 10 µM (DYRK1B): 87% | remaining binding at 10 µM (ULK1): 98% | remaining binding at 10 µM (WEE1): 98% | remaining binding at 10 µM (BMPR1A): 97% | remaining binding at 10 µM (DMPK): 100% | S(1) (403 non-mutant kinases): 0.005 | S(10) (403 non-mutant kinases): 0.012 | S-Score (35) (403 non-mutant kinases): 0.042 | remaining binding at 10 µM (RET(M918T)): 100% | remaining binding at 10 µM (PLK2): 62% | remaining binding at 10 µM (FLT1): 100% | remaining binding at 10 µM (PKNB(M. tuberculosis); PKNB(M. tuberculosis), 10000 nM): 98% | remaining binding at 10 µM (PIK3CD): 92% | remaining binding at 10 µM (MYLK2): 97% | remaining binding at 10 µM (KIT(A829P)): 100% | remaining binding at 10 µM (PIK3CA(E545A)): 100% | remaining binding at 10 µM [1]: 54% | remaining binding at 10 µM (CDKL5): 100% | remaining binding at 10 µM (PIK3CG): 88% | remaining binding at 10 µM (LATS2): 98%
